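Growth conditions: 96-well plates. Treatment: test compound, 48 hours, 5 concentrations. Analysis: linear interpolation between bracketing concentrations; unreached endpoints set to highest concentration. At the TGI there is no net growth.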
Columns and labels:
Test in all cases: inhibition of tumour cell growth, NCI panel, 48 h
SK-MEL-28 melanoma = test system: SK-MEL-28 melanoma
M14 melanoma = test system: M14 melanoma
MALME-3M melanoma = test system: MALME-3M melanoma
RXF 393 renal = test system: RXF 393 renal
HCT-116 colon = test system: HCT-116 colon
NCI-H460 lung = test system: NCI-H460 lung
DMS 114 small cell lung = test system: DMS 114 small cell lung
HOP-18 NSCLC = test system: HOP-18 NSCLC
SW-620 colon = test system: SW-620 colon
U251 CNS = test system: U251 CNS
SNB-75 CNS = test system: SNB-75 CNS
HCT-15 colon = test system: HCT-15 colon
OVCAR-4 ovarian = test system: OVCAR-4 ovarian
ACHN renal = test system: ACHN renal
HCC-2998 colon = test system: HCC-2998 colon
MOLT-4 leukemia = test system: MOLT-4 leukemia
KM20L2 colon = test system: KM20L2 colon
HL-60(TB) leukemia = test system: HL-60(TB) leukemia
KM12 colon = test system: KM12 colon
SN12C renal = test system: SN12C renal
A549 NSCLC = test system: A549 NSCLC
SF-539 CNS = test system: SF-539 CNS
HT29 colon = test system: HT29 colon
CCRF-CEM leukemia = test system: CCRF-CEM leukemia
LXFL 529 NSCLC = test system: LXFL 529 NSCLC
SK-MEL-2 melanoma = test system: SK-MEL-2 melanoma
SF-295 CNS = test system: SF-295 CNS
SF-268 CNS = test system: SF-268 CNS
HOP-62 NSCLC = test system: HOP-62 NSCLC
XF 498 CNS = test system: XF 498 CNS
K-562 leukemia = test system: K-562 leukemia
LOX IMVI melanoma = test system: LOX IMVI melanoma
SR leukemia = test system: SR leukemia
UACC-62 melanoma = test system: UACC-62 melanoma
SNB-78 CNS = test system: SNB-78 CNS
786-0 renal = test system: 786-0 renal
NCI-H522 lung = test system: NCI-H522 lung
TK-10 renal = test system: TK-10 renal
SK-MEL-5 melanoma = test system: SK-MEL-5 melanoma
IGROV1 ovarian = test system: IGROV1 ovarian
OVCAR-5 ovarian = test system: OVCAR-5 ovarian
UO-31 renal = test system: UO-31 renal
SK-OV-3 ovarian = test system: SK-OV-3 ovarian
UACC-257 melanoma = test system: UACC-257 melanoma
OVCAR-3 ovarian = test system: OVCAR-3 ovarian
OVCAR-8 ovarian = test system: OVCAR-8 ovarian
M19-MEL melanoma = test system: M19-MEL melanoma
RPMI-8226 leukemia = test system: RPMI-8226 leukemia
SNB-19 CNS = test system: SNB-19 CNS
NCI-H226 lung = test system: NCI-H226 lung
A498 renal = test system: A498 renal
DMS 273 small cell lung = test system: DMS 273 small cell lung
COLO 205 colon = test system: COLO 205 colon
EKVX NSCLC = test system: EKVX NSCLC
NCI-H23 lung = test system: NCI-H23 lung
HOP-92 NSCLC = test system: HOP-92 NSCLC
CAKI-1 renal = test system: CAKI-1 renal

Measured: TGI

Cc1cc(Cl)ccc1NC(=O)C(=O)Cc1ccc([N+](=O)[O-])c([N+](=O)[O-])c1CC(=O)C(=O)Nc1ccc(Cl)cc1C
> 100 µM: all assays above

— PubChem BioAssay (NCI)
